Experimental data taken from patent publication US20160304970A1, “GENE BIOMARKER TO DIAGNOSE METASTIC LIVER CANCER AND METHODS FOR TARGETING THE SAME” (University of Southern California, priority 2015, published 2016).
Values joined by “and” are separate entries in the source; they are usually repeats but may differ in a detail not shown here. Equal values may be shown once.

What was measured:
TICs [1] = experiment: Stable-isotope glutaminolysis analysis; format: cell-based
Description: To test the glutamine utilization, TICs were incubated in 1 mM of [U-^13C5, 2,5-^15N2]-glutamine (Cambridge Isotope Laboratory, Cat # CNLM-1275-H-PK) for 4 hr. When [U-^13C5, 2,5-^15N2]-glutamine is taken up by cells, it loses the ^15N on the 5th carbon and is converted to [U-^13C5, 2-^15N]-glutamate, which loses the ^15N on the 2nd carbon and becomes [U-^13C5]-glutamate after rapid equilibration with TCA cycle intermediate α-ketoglutarate. When glutamine and glutamate were analyzed by gas chromatography mass spectrometry (GC-MS) using electronic impact ionization (EI), their TFA derivatives gave rise to C2-C4 (m/z 152) and C2-C5 (m/z 198) fragments. Thus, the [U-^13C5, 2-^15N]-glutamate has a C2-C4 fragment of m/z 156 (M4; contains 3×^13C and a ^15N) and a C2-C5 fragment of […] (M5; contains 4×^13C and a ^15N), which represent the relative abundance of glutamine taken up by the TICs. On the other hand, [U-^13C5]-glutamate has a C2-C4 fragment of m/z 155 (M3; contains 3×^13C) and a C2-C5 fragment of […] (M4; contains 4×^13C). When the [U-^13C5]-glutamate enters TCA cycle metabolism, it will gradually lose the ^13C carbon after each cycle and generate M2, M1, and M0 C2-C4 fragment and M3, M2, M1, and M0 C2-C5 fragment, which represent the TCA cycle activity. […]

TICs [2] = experiment: Cytochrome c release, immunoblot of cytosol and heavy membrane fractions; format: cell-based
TICs [3] = experiment: Seahorse extracellular flux analysis (OCR, ECAR); format: cell-based; conditions: for FCCP-induced OCR: Nanog silenced TICs, ETO 100 μM
Description: To measure cellular bioenergetics using extracellular flux, a Seahorse […] Extracellular Flux Analyzer was used following the published protocol (Ahfeldt et al., 2012; Ferrick et al., 2008). […] Cells were plated in gelatin-coated XF 24-well cell culture microplates at 2-7.5×10^4 cells/well (Seahorse Bioscience) and incubated in pre-warmed unbuffered DMEM medium (DMEM containing 2 mM GlutaMAX, 1 mM sodium pyruvate, 1.85 g l^−1 NaCl and 25 mM glucose) for 1 h. The oxygen consumption was measured by the XF24 extracellular flux analyzer (Seahorse Biosciences) in unbuffered DMEM assay medium supplemented with 1 mM pyruvate and 25 mM glucose after 45 to 60 min equilibration.
The characteristic function of mature hepatocytes is metabolism/thermogenesis, driven by the catabolic breakdown of lipids. To distinguish these tumor cells at a functional level, the oxygen consumption rate (OCR) and extracellular acidification rate (ECAR) were analyzed as previously described (Ahfeldt et al.). It was observed that the basal OCR and ECAR rates were highest in the Nanog-silenced TICs. Compounds were added that modulated mitochondrial function sequentially and measured the effect on OCR and ECAR after the addition of each compound. Oligomycin was first administered to determine ATP turnover and the degree of proton leakage. […] After the addition of the electron transport chain decoupler (FCCP), the maximal respiratory capacity was measured. […] Finally, antimycin was administered to inhibit the flux of electrons through complex III and prevent oxygen consumption by the cytochrome c oxidase in the mitochondria as previously described. For determination of individual ETC complex activities, mitochondrial biogenesis was profiled by adding perturbation drugs: 2 μM oligomycin, 0.5 μM FCCP and 5 μM antimycin A/rotenone, in succession. OCR for complexes II-IV was measured by first inhibiting complex I with rotenone; OCR for complexes III-IV was measured by first inhibiting complex II with […]; and OCR for complex IV was measured by first inhibiting complex III with antimycin. The Etomoxir (ETO, 100 μM)-sensitive component of oxygen consumption rate (OCR) represents FAO. Absolute values of OCR were expressed as pmol min^−1 per 10^6 cells and mpH min^−1 per 10^6 cells. OCR and ECAR were determined by plotting the oxygen tension and acidification of the medium in the chamber as a function of time and normalized to protein concentration (picomoles per minute per milligram), respectively. […]
The ECAR was measured over time at 10 min intervals. […] By uncoupling the proton gradient with FCCP, the maximum OCR rates were determined over the next two time intervals (II). By addition of glycolysis inhibitor (2-DG) or CPT1 inhibitor (ETO), the OCR rates were determined over the next two time intervals (III). […]

mouse TICs = experiment: TIC xenograft in NOG mice, sorafenib resistance; format: in vivo; conditions: mouse TICs subcutaneously in NOG mice
TICs [4] = experiment: ATP production measurements; format: cell-based; conditions: inhibitors for 4 hr
Description: Relative ATP/cell assays were performed in 96-well plates. After cells were treated with inhibitors for 4 hr, culture media was removed. Cell Titer-Glo (100 μl: Promega) and CyQUANT (Invitrogen) were immediately added to each well. Luminescence and fluorescence readings were consecutively measured after room-temperature incubation for 10 min.

TICs [5] = experiment: ROS levels and spheroid formation of TICs; format: cell-based
Description: To evaluate the status of mitochondria in TICs, the MitoTracker® Mitochondrion-selective probes for total mitochondrial mass (MitoTracker® Deep Red FM Invitrogen: M22426) and for oxidized state mitochondria (MitoSOX™ Red mitochondrial superoxide indicator) were added to the media, respectively, and cells subjected to FACS analyses. ROS labeling was performed as per the instructions for CellROX® Oxidative stress reagent Probes (CellROX® green reagent, Invitrogen C10444). In brief, the cells were incubated with staining solution (100 nM) in culture media at 37° C. for 30 minutes. After staining was complete, cells were washed with PBS and analyzed by fluorescent microscopy or flow cytometry.

CD133 (+) Huh7 cells = experiment: CD133 cell viability screening (luminescence, CellTiter-Glo); format: cell-based; conditions: Homo sapiens, Huh-7
Description: (§1) CD133(+) and CD133(−) Huh7 cells were freshly sorted using the MACS CD133 micro bead kit (Miltenyi Biotec, 130-050-801) and were seeded in 100 μl medium containing 5000 cells per well in a 96-well plate. Once the cells attached, the FDA approved drug library was added to each well to a final concentration of 20 μg/ml in duplicate. After incubation for 48 hours, the cell viability was determined by a luminescence assay. […] After 16 hours, 1 μl of a […] drug solution was individually added to the 96 wells, resulting in a 20 μg/ml final concentration for most compounds. After 48 hours, CellTiter-Glo® Reagent (G8233, Promega) was added and the luminescence signal was measured with an automated plate reader. The raw data for each well was background-corrected by DMSO control wells on the same plate.
Freshly sorted CD133 (+) Huh7 or mouse TICs were plated in 100 μl of medium containing 5000 cells per well in a 96-well plate. After 16 hours, 0.5 μl of a 2 μg/ml, 1 μg/ml, 0.2 μg/ml, 0.1 μg/ml, 0.02 μg/ml, or 0.01 μg/ml compound was added to each well in triplicate, resulting in a 10 μg/ml, 5 μg/ml, 1 μg/ml, 0.5 μg/ml, 0.1 μg/ml, and 0.05 μg/ml final concentration for most compounds, respectively. After 48 hours, the cells were either measured for cell viability by Cell-Glo® Reagent (Promega), or fixed with 1% PFA (paraformaldehyde) and stained with DAPI for high-throughput screening.

[6] = as above; format: cell-based; conditions: human, CD133 (−) Huh7 cells (freshly MACS-sorted)
Description: as §1

TICs [7] = conditions: cited from earlier work
hepatocytes = experiment: Cytochrome c release, immunoblot of cytosol and heavy membrane fractions; format: cell-based; conditions: within 1-3 hours post treatment

## C=CC(N)CCC(=O)O (stereo not shown) [vigabatrin]
TICs [1]
  percentage of labeled succinate: does not reduce

## CCOC(=O)[C@@]1(CCCCCCOc2ccc(Cl)cc2)CO1 [ETO, Etomoxir]
TICs [2]; in response to sorafenib treatment
  cytochrome c release from mitochondria: enhanced
TICs [3]
  FCCP-induced OCR: antagonized
TICs [3]; sh-Nanog-TICs
  ECAR: inhibits
TICs [3]; sh-Scr-TICs
  ECAR: does not affect
Mouse TICs
  xenograft tumor growth / sorafenib resistance: sensitized TICs to sorafenib
TICs [4]
  ATP production: reduced ATP production

## C[n+]1ccc(-c2cc[n+](C)cc2)cc1 [Paraquat]
TICs [5]
  ROS production: increased ROS production
  tumor spheroid formation of TICs: significantly reduced

## O=CC[C@@H](O)[C@H](O)[C@H](O)CO [2-DG, 2-deoxyglucose]
TICs [3]
  FCCP-induced OCR: not
TICs [4]
  ATP production: did not significantly lower ATP production

## COc1cc(C)c(/C=C/C(C)=C/C=C/C(C)=C/C(=O)O)c(C)c1C [acitretin]
CD133 (+) Huh7 cells; 20 μg/ml, 48 hours
  viability at 20 µg/mL: 12%
CD133 (+) Huh7 cells; CD133 killing effect, FIG. 44A
  IC50: 7.37 µg/mL and 22.6 µM
[6]
  viability at 48 h, 20 μg/ml: 70.4%

## CNC(=O)c1cc(Oc2ccc(NC(=O)Nc3ccc(Cl)c(C(F)(F)F)c3)cc2)ccn1 [sorafenib]
TICs [7]; sorafenib combined with knockdown of YAP1 (Chen et al., 2013)
  tumor size reduction: ~55%
TICs [7]; sorafenib with antagonism of NANOG in TICs, tumor-bearing mice (Huynh et al., 2009)
  suppression of tumor growth: ~90%
TICs [2]; TICs
  cytochrome c localisation following sorafenib treatment: remained mostly in the heavy membrane (HM) fraction
hepatocytes
  cytochrome c localisation following sorafenib treatment: translocated from mitochondria into the soluble fraction
Mouse TICs
  xenograft tumor growth / sorafenib resistance: very resistant
